How the values were obtained:
Test in all cases: relative viability (nuclei count vs DMSO), 5 days (fraction); higher = more cells survive
Crizotinib + Navitoclax = compound: C[C@@H](Oc1cc(-c2cnn(C3CCNCC3)c2)cnc1N)c1c(Cl)ccc(F)c1Cl [Crizotinib] + CC1(C)CCC(c2ccc(Cl)cc2)=C(CN2CCN(c3ccc(C(=O)NS(=O)(=O)c4ccc(N[C@H](CCN5CCOCC5)CSc5ccccc5)c(S(=O)(=O)C(F)(F)F)c4)cc3)CC2)C1 [Navitoclax] (partner 0.5 µM)
Procedure, shortened: (§1)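 Cells from lung cancer lines were seeded into 1536-well plates and, one day later, dosed by pin tool. Treatments were either a single drug or a fixed dose of an anchor drug with five library-drug doses (not always all listed) in √10 steps. After 5 days, nuclei were stained in a one-step fixation (final 0.05% Triton X-100, 1% formaldehyde, 1 ug/ml Hoechst) and counted on 4× images, and relative viability is the treated-to-vehicle nuclei ratio, as the median of duplicate plates.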

Crizotinib + Luminespib = compound: C[C@@H](Oc1cc(-c2cnn(C3CCNCC3)c2)cnc1N)c1c(Cl)ccc(F)c1Cl [Crizotinib] + CCNC(=O)c1noc(-c2cc(C(C)C)c(O)cc2O)c1-c1ccc(CN2CCOCC2)cc1 [Luminespib] (partner 0.01 µM)
Procedure, shortened: as §1

Crizotinib + Foretinib = compound: C[C@@H](Oc1cc(-c2cnn(C3CCNCC3)c2)cnc1N)c1c(Cl)ccc(F)c1Cl [Crizotinib] + COc1cc2c(Oc3ccc(NC(=O)C4(C(=O)Nc5ccc(F)cc5)CC4)cc3F)ccnc2cc1OCCCN1CCOCC1 [Foretinib] (partner 0.25 µM)
Procedure, shortened: as §1

Olaparib + Vorinostat = compound: O=C(c1cc(Cc2n[nH]c(=O)c3ccccc23)ccc1F)N1CCN(C(=O)C2CC2)CC1 [Olaparib] + O=C(CCCCCCC(=O)Nc1ccccc1)NO [Vorinostat] (partner 1 µM)
Procedure, shortened: as §1

Cell Line	relative viability (Crizotinib + Navitoclax; first compound 0.01 µM)	relative viability (Crizotinib + Navitoclax; first compound 0.03162 µM)	relative viability (Crizotinib + Navitoclax; first compound 0.1 µM)	relative viability (Crizotinib + Navitoclax; first compound 0.3162 µM)	relative viability (Crizotinib + Navitoclax; first compound 1 µM)	relative viability (Crizotinib + Luminespib; first compound 0.01 µM)	relative viability (Crizotinib + Luminespib; first compound 0.03162 µM)	relative viability (Crizotinib + Luminespib; first compound 0.3162 µM)	relative viability (Crizotinib + Foretinib; first compound 0.01 µM)	relative viability (Crizotinib + Foretinib; first compound 0.03162 µM)	relative viability (Crizotinib + Foretinib; first compound 0.1 µM)	relative viability (Crizotinib + Foretinib; first compound 0.3162 µM)	relative viability (Crizotinib + Foretinib; first compound 1 µM)	relative viability (Olaparib + Vorinostat; first compound 0.08 µM)	relative viability (Olaparib + Vorinostat; first compound 0.253 µM)	relative viability (Olaparib + Vorinostat; first compound 2.53 µM)	relative viability (Olaparib + Vorinostat; first compound 8 µM)	relative viability (Crizotinib + Luminespib; first compound 0.1 µM)	relative viability (Crizotinib + Luminespib; first compound 1 µM)
201T	1.2	1.18	1.16	1.19	1.21	1.01	1.07	1.06	0.982	1.12	1.09	1.13	1.14	1.07	0.912	0.954	0.947		
A549	1.22	1.15	1.19	1.17	1.18				0.919	1.05	0.908	0.853	1.02						
A-427	0.95	1.03	1		1.02	0.91	0.904		0.943	1.04	1.04		1.04	0.911	0.863	0.871	0.76	0.946	0.963
ABC-1							0.865	0.496		1.02	1.05	1.31	1.09	1.13		1.08	1.07	0.628	
BEN	0.0724	0.0669	0.0752	0.0683	0.0583	0.504	0.301	0.198	0.866	0.732	0.644	0.332	0.633	0.625	0.606	0.582	0.566	0.38	0.549
CAL-12T	1.19	1.22	1.06	1.18	1.21	0.297	0.339		1.11	1.17			1.24	1.15	0.663	0.917	0.687	0.232	0.201
COR-L23	0.952	0.993	1.1	0.937	1.03	0.655	0.665	0.775	0.862	1	0.89	1.06	1.07	0.508	0.43	0.228	0.239	0.656	0.687
COR-L 105	0.771		0.908	0.871	0.76	0.686	0.859	0.804	1.07	1.02	1.12	0.797	1.15	0.782	0.717	0.781	0.79	0.712	0.769
Calu-6	0.8	0.766	0.836	0.774	0.735				0.855	0.938	0.86	0.947	0.927						
ChaGo-K-1	0.965	0.922	1.1		0.854	0.438	0.546	0.526	0.838		0.939		0.939	0.815	0.665	0.63	0.416	0.517	0.747
EBC-1	0.49	0.344	0.12	0.152	0.16				0.0852	0.1	0.107	0.112	0.104						
EKVX	0.879	1	0.95	0.871	0.961	0.953		0.939	0.772	0.752	0.717	0.444	0.991	0.667	0.679	0.776	0.646	0.947	0.865
EMC-BAC-2	1.13	1.19	1.13	1.12	1.15	1.12	1.25	1.16	0.984	0.952	1.02	1.04	1.07	0.584	0.405	0.703	0.446	1.09	1.22
EPLC-272H		1.1	1.26	1.1	1.15	0.236	0.343	0.262	0.669	0.627	0.669	0.636	0.679	0.513	0.386	0.472	0.4	0.197	0.577
H3255	0.53	0.499	0.521	0.484	0.487	0.928	0.971	0.743	0.849	0.866	1.11	0.581	0.877	0.859	0.722	0.904	0.757	0.831	
HARA	1.13	1.08	1.13	1.13	1.1	0.819	0.77		0.924	0.705	0.858		0.877	0.45	0.472	0.553	0.507	0.708	0.682
HCC-15	0.644	0.736	0.704	0.664	0.76	0.382	0.409		1.07	1	1.03		0.987	0.956	0.819	0.83	0.687	0.443	0.334
HCC-44	0.838	0.969	0.963	1.01	1.05	1.03	0.99	1.05						1.12	1.06	1.22	1.16	0.988	1.06
HCC-78	0.774	0.738	0.749	0.685	0.628					0.685	0.566	0.592	0.599	0.443	0.429	0.377	0.557		
HCC-366	0.991	1.11	1.06		1.17				0.913	0.841	0.893		0.95	0.352	0.273	0.191	0.101		
